The source made the active and inactive calls. No cut-off for these calls is given here.
Legend:
[1] = target: T1, Steroid C26-monooxygenase (Mycobacterium tuberculosis, UniProt P9WPP1)
T1 sequence (P9WPP1 whole entry): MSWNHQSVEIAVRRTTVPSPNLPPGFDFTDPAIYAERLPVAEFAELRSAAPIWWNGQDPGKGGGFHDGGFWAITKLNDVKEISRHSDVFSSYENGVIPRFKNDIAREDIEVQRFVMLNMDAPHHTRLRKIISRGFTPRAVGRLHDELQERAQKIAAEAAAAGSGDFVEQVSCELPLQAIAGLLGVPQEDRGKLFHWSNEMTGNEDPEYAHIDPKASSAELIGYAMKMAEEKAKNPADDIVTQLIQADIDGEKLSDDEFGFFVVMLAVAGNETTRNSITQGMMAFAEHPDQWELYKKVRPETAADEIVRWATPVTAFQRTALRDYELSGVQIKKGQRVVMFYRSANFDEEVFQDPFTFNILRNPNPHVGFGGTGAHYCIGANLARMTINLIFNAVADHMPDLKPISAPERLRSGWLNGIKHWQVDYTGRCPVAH

Cytochrome P450 130 = target: T2, Cytochrome P450 130 (Mycobacterium tuberculosis, UniProt P9WPN5)
T2 sequence (P9WPN5 whole entry): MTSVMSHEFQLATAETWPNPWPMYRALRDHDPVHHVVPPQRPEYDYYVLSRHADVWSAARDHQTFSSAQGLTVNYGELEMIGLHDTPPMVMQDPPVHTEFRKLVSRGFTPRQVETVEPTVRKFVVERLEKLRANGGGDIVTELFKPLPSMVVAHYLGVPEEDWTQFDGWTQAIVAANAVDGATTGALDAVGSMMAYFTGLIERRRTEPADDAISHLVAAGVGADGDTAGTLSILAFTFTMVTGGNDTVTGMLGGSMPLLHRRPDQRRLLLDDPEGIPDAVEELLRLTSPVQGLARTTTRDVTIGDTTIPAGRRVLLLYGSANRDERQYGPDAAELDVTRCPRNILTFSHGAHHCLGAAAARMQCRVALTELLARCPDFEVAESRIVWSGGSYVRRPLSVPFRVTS

[2] = tested on: Mycobacterium tuberculosis; assay: Antimycobacterial activity against Mycobacterium tuberculosis H37Rv at 500 uM after 4 days by alamar blue assay; type: functional, organism-based
[3] = tested on: Mycobacterium tuberculosis; assay: Antimycobacterial activity against Mycobacterium tuberculosis H37Rv at 250 uM after 4 days by alamar blue assay; type: functional, organism-based
[4] = target: T3, Sterol 14alpha-demethylase (Mycobacterium tuberculosis, UniProt P9WPP9)
T3 sequence (P9WPP9 whole entry): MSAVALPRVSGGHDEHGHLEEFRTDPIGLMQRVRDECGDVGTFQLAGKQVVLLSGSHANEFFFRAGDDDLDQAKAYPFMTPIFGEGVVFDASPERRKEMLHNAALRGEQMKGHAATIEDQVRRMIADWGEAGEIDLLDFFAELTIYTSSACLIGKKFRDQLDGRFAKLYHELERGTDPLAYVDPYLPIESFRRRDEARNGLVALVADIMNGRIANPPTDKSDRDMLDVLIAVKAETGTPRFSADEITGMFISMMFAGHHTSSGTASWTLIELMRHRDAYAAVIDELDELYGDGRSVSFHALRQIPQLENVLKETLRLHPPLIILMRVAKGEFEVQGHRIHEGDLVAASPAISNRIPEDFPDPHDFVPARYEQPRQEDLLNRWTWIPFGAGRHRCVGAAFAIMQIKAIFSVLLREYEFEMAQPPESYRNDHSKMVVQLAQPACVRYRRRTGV

[5] = target: T3, Sterol 14alpha-demethylase; remark: listed apart in the source
[6] = tested on: Mycobacterium tuberculosis; assay: Antimycobacterial activity against Mycobacterium tuberculosis H37Rv at 200 uM after 4 days by alamar blue assay; type: functional, organism-based
[7] = tested on: Mycobacterium tuberculosis; assay: Antimycobacterial activity against Mycobacterium tuberculosis H37Rv at 100 uM after 4 days by alamar blue assay; type: functional, organism-based

Compound: CCC(C(=O)Nc1ccncc1)c1ccccc1 (stereo not drawn)
- Kd [1]: 2000 µM
- Kd (Cytochrome P450 130): 260 µM
- Activity [2]: Active
- Activity [3]: Active

Compound: NCC(=O)N1c2ccccc2Sc2ccccc21
- Kd [4]: 5 µM

Compound: c1ccc(-c2c[nH]cn2)cc1
- Kd [5]: 1.3 µM

Compound: O=C(Nc1ccncc1)C1(c2ccccc2)CCOCC1
- Kd [4]: 5 µM

Compound: CCC1(C)CC(CCN)(c2ccc(OC)cc2)CCO1 (stereo not drawn)
- Kd [4]: 5 µM

Compound: Nc1ccc(NS(=O)(=O)c2ccc(Cl)cc2)cc1
- Kd [4]: 5 µM

Compound: O=C(Nc1ccncc1)C(NS(=O)(=O)c1cccc2nsnc12)c1ccccc1 (stereo not drawn)
- Kd [4]: 5 µM

Compound: COc1ccccc1C(CCN)c1ccco1 (stereo not drawn)
- Kd [4]: 5 µM

Compound: O=C1c2cc(O)ccc2-c2ccc(O)cc21
- Kd [5]: 25 µM

Compound: O=C(c1ccc(O)cc1)c1ccc(O)cc1
- Activity ([1]; mycobacterium tuberculosis): Not Active
- Activity (Cytochrome P450 130; mycobacterium tuberculosis): Not Active
- Activity [6]: Active
- Kd [5]: 28 µM
- Activity [7]: Active

Compound: C[C@]12CC[C@@H]3c4ccc(O)cc4CC[C@H]3[C@@H]1C[C@@H](O)[C@@H]2O [ESTRIOL]
- Kd [5]: 100 µM
